These results are taken from patent US20160038459A1, “COMPOSITIONS AND METHODS FOR THE TREATMENT OF NATAL AND PRE-NATAL CONDITIONS WITH ALPHA-TOCOPHEROL” (Northwestern University, priority 2014, published 2016).

The test system of data set [1] is OVA-challenged pups from allergic mothers. As to the kind of experiment: OVA-induced allergic inflammation in pups from allergic mothers given D-α-tocopherol-supplemented diet.
Protocol: C57BL/6 female mice were maintained on chow diet. The mice were sensitized by intraperitoneal injection (200 μl) of ovalbumin (OVA) grade V (5 μg)/potassium aluminum sulfate (alum, 1 mg) or saline/alum (1 mg) on days 0 and 7 (26, 28, 46). The mice were exposed to nebulized saline or 3% (wt/vol) OVA in saline for 15 min on three consecutive days at 8, 12, and 16 wk of age. At 18 wk old, the female mice were challenged one time with 3% OVA (26, 28, 46) and then fed basal diet or diet supplemented with D-α-tocopherol (500 mg α-tocopherol/kg diet) (Table 1) (42, 52, 71). […] Ten days after starting the tocopherol-supplemented diet, females were mated with normal males. Three-day-old pups were sub-optimally sensitized by treating with only one 50-μl ip injection (rather than two injections) of 5 μg OVA/1 mg alum (26, 28, 33). At 10, 11, and 12 days old, the pups were challenged for 15 min with 3% OVA (FIG. 1A). At 13 days old, the pups were weighed and killed, and tissues were collected. Serum was collected for analysis of IgE, liver was for tocopherol analysis, lung lavage was for leukocytes and cytokines, and lung tissue was for histology, flow cytometry, and qPCR of mediators of allergic inflammation. Liver was extracted and examined for tocopherols by high-pressure liquid chromatography with electrochemical detection as we previously described (7, 50). Bronchoalveolar lavage (BAL) cells were stained and counted as previously described (3). […] Lung tissue sections were fixed in cold methanol for 15 min, rehydrated for 60 min with PBS, and stained with eosin and methyl green as we previously described (6).
In these studies, allergic responses were induced in 6-wk-old adult female mice by sensitization with OVA/alum at weeks 0 and 1 and challenge with OVA or saline three times a week during weeks 4, 8, 12, and 18 as in the timeline in FIG. 1A. Next, the females were supplemented with D-α-tocopherol at the time of mating (FIG. 1A). The mothers were given a standard basal diet (45 mg D-α-tocopherol/kg diet) or supplemented with 150, 250, or 500 mg D-α-tocopherol/kg diets (Table 1). […] All pups from the mothers were challenged with a suboptimal regimen of OVA as previously described (46); the pups received one, instead of two, sensitizations with OVA-alum and then received three challenges with aerosolized OVA (FIG. 1A).
For data set [2], the system named is bone marrow-derived DCs co-cultured with CD4+ T cells. As to the kind of experiment: Bone marrow-derived DCs co-cultured 48 hours with purified CD4+ T cells. Type of data set: cell-based. The following applies: 80 μM α-T; 48 hours co-culture (not shown). How it is done:
FIGS. 17A-C show α-T and γ-T have opposing effects in regulation of DC development and function in vitro. FIGS. 17A and B show results from bone marrow from postnatal day 10 neonate (with basal diet) that was cultured with GM-CSF and with 80 μM αT (FIG. 17B) or 2 μM γT (FIG. 17A) for 8 days and analyzed for DC subsets by immunolabeling/flow cytometry. *, p<0.05 compared to DMSO group. **, p<0.05 compared to indicated group. […] Expression by qPCR. There was no effect on cell viability (not shown). n=3. **, p<0.05 compared to all other groups. *, p<0.05 compared to DMSO group.

Data set [3] in a line: Liver tocopherol measurement by HPLC with electrochemical detection. The following applies: PND13 pup liver. Type of data set: in vivo, C57BL/6 mice. How it is done: Diets or livers were weighed and homogenized in absolute ethanol with 5% ascorbic acid on ice. The internal standard tocol is added to each […] to determine recovery. The homogenate or plasma was extracted with an equal volume of hexane with 0.37 wt/100 wt butylated hydroxytoluene to prevent oxidation and increase recovery of tocopherol. The samples were vortexed and then centrifuged for 10 min at 9,000 g at 4° C. The hexane layer was dried under nitrogen and stored at −20° C. The samples were reconstituted in methanol, and then tocopherols were separated using a reverse-phase C18 HPLC column (Hewlett Packard) and HPLC (Waters) with 99% methanol-1% water as a mobile phase with detection with an electrochemical detector (potential 0.7 V) (Waters).

Where [4] appears, read: maternal supplementation, discussion statement.

`Cc1c(C)c2c(c(C)c1O)CC[C@@](C)(CCC[C@H](C)CCC[C@H](C)CCCC(C)C)O2` [D-α-tocopherol, D-α-Tocopherol]: the “percent eosinophils in the BAL” value in data set [1] (150 mg α-tocopherol/kg maternal diet, pups PND13) is “partially inhibited”. The “percent eosinophils in the BAL” value in data set [1] (250 mg α-tocopherol/kg maternal diet, pups PND13) is listed as “greatest inhibition”. Moreover, the “development of the allergic response in cross-fostered neonates” value in data set [1] (250 mg/kg diet during pregnancy only, pups cross-fostered to allergic mothers with basal diet) was “sufficient to inhibit”. In addition, the “allergic responses in cross-fostered neonates” value in data set [1] (250 mg/kg diet supplementation during lactation only, cross-fostered) is “reduced”. Further, the “percent eosinophils in the BAL” value in data set [1] (500 mg α-tocopherol/kg maternal diet, pups PND13) was “greatest inhibition”. Also, the “inhibition of BAL eosinophils in the OVA-challenged pups” value in data set [1] (500 mg/kg diet started at second mating, second litter of allergic mothers) is greater than 90%. In data set [1] (among the D-α-tocopherol treatment groups, ELISA), the “OVA-specific serum IgE in pups” value is “not different”. Also, in data set [1] (maternal diet 150, 250 or 500 mg/kg diet vs basal 45 mg/kg, pregnancy and lactation, PND13 BAL), the “allergic inflammation in the OVA-stimulated pups from allergic mothers” value is recorded as “dose-dependent inhibition”. Also, in data set [1] (maternal supplementation of allergic female mice, eosin/methyl green histology), the “eosinophils in the lung tissue of OVA-challenged pups” value is given as “reduced”. Also, in data set [1] (maternal supplementation, PND13 pups of the liver tocopherol/DC experiment (FIG. 9D)), the “allergic responses in the lung (BAL eosinophils and monocytes)” value is recorded as “blocked”. Moreover, in data set [1] (setting [4]), the body weight entry was “did not affect” and the lung weight entry was “did not affect”. In data set [1] (maternal supplemented diets), the pup gender distribution result is recorded as “no effect” and the pup numbers result was “no effect”. For the same compound, in data set [1] (maternal supplemented diets, pups PND13), the pup weight entry is reported as “no effect”. In addition, the cell viability result in data set [2] is “no effect”. The “increase of pup liver D-α-tocopherol with maternal supplementation” value in data set [3] came out at 2.5 fold.
